In assay [1] the target is T1, Acetylcholinesterase from Electrophorus electricus (electric eel) (AChE) (Electrophorus electricus, UniProt O42275). In kind it is biochemical. As to conditions: 36.6 °C; for % Inhibition (inhibitory activity, ITC): AChE 1 μmol/L in cell, syringe hydroxybenzoic acid 0.5 mmol/L and ACh 1 mmol/L, mean ± SD of three; for IC50 (ITC): ligand amount per AChE monomer that inhibits ACh hydrolysis by 50%.

Assay [2] has as its target T1, Acetylcholinesterase from Electrophorus electricus (electric eel) (AChE). Description: ITC: titration of AChE with ligand, complexation (association) constant. In kind it is binding. Particulars: for Ka × 10^3 (binding/association constant, ITC): 36.6 °C, one binding site model; for Ka (association constant, ITC): restated in L/mol.
Assay [3] has as its system AChE. As to conditions: colorimetric method; cited from earlier work.
Assay [4] has as its system AChE. Particulars: inhibitory activity for AChE; cited from earlier work.
Assay [5] concerns AChE. On the set-up: method as in PMID 18274286. Particulars: AChE inhibition; cited from earlier work.
Assay [6] concerns AChE. Details: method as in PMID 23229229. As to conditions: AChE inhibition; cited from earlier work.
Assay [7] deals with AChE. As to conditions: anti-AChE activity; cited from earlier work.
For assay [8], the system named is AChE. As to conditions: mice administered with streptozotocin; dose-dependent; cited from earlier work.
The subject of assay [9] is AChE. Particulars: AChE inhibition; literature result, no reference given; cited from earlier work.

Values after ≈ are worked out from the molar mass of the structure shown. Values joined by “and” are separate entries in the source; they are usually repeats but may differ in a detail not shown here. Identical values can stand only once. Like-named read-outs stand apart in the source and are kept apart here.

T1 sequence (O42275 24-633): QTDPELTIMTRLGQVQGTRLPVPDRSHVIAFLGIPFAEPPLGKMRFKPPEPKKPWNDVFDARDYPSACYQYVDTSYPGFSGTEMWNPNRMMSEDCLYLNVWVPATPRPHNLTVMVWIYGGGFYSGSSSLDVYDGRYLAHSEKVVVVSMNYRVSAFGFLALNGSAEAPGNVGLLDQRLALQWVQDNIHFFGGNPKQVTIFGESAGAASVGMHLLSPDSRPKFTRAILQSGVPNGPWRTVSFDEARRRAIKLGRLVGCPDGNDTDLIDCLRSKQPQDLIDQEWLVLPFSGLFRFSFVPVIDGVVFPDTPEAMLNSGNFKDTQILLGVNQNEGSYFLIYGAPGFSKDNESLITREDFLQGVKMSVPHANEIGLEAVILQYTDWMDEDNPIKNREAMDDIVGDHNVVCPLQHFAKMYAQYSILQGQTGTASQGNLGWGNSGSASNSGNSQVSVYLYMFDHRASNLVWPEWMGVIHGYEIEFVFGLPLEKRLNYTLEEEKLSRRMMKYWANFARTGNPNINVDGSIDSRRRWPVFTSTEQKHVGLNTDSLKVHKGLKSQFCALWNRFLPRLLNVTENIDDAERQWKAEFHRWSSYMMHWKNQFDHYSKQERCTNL

`O=C(O)c1cccc(O)c1` [3-hydroxybenzoic acid]: in assay [1], the “% Inhibition (inhibitory activity, ITC)” value was determined as 74.80 ± 8.63%; the “IC50 (ITC)” value is 6.68 μmol/μmol AChE and 6.68 ± 0.77 μmol/μmol AChE. Also, in assay [2], the Kd is 15.6 µM and the “Ka × 10^3 (binding/association constant, ITC)” value is reported as 64.10 × 10^3 L/mol. Further, the “Ellman’s Assay (inhibitory activity as eserine equivalent)” value in [3] was 2.6 ± 0.1 nmol/L of Eserine.
With `O=C(O)c1ccc(O)cc1` [4-hydroxybenzoic acid], the “Ellman’s Assay (inhibitory activity as eserine equivalent)” value in assay [3] is listed as 3.7 ± 0.3 nmol/L of Eserine.
Take `O=C(O)Cc1ccc(O)cc1` [4-hydroxyphenylacetic acid]: in [1], the “% Inhibition (inhibitory activity, ITC)” value came out at 80.20 ± 8.04%; the “IC50 (ITC)” value is 6.24 μmol/μmol AChE and 6.24 ± 0.63 μmol/μmol AChE. Further, in assay [2], the Kd was 15.1 µM and the “Ka × 10^3 (binding/association constant, ITC)” value is on record as 66.23 × 10^3 L/mol.
On to `O=C(O)C(=O)Cc1ccc(O)cc1` [4-hydroxyphenylpyruvic acid], for which, in [1], the “% Inhibition (inhibitory activity, ITC)” value is on record as 84.93 ± 5.82%; the “IC50 (ITC)” value was 5.89 μmol/μmol AChE and 5.89 ± 0.40 μmol/μmol AChE. Moreover, in assay [2], the affinity, expressed as Kd, was 3.95 µM; the “Ka × 10^3 (binding/association constant, ITC)” value was 253 × 10^3 L/mol; the “Ka (association constant, ITC)” value was found to be 253000 L/mol. Moreover, the “Ellman’s Assay (inhibitory activity as eserine equivalent)” value in assay [3] is given as 23.6 ± 1.5 nmol/L of Eserine.
Take `COc1ccc2c3c1O[C@H]1C[C@@H](O)C=C[C@@]31CCN(C)C2` [calantamine, galantamine]: the IC50 in assay [4] was […].
Consider `CCOC(=O)c1ccc(O)cc1` [ethyl 4-hydroxybenzoate], for which, in assay [1], the “% Inhibition (inhibitory activity, ITC)” value was 15.93 ± 0.75% and the “IC50 (ITC)” value is given as 31.38 ± 1.48 μmol/μmol AChE. Also, the “IC50 (ITC)” value in [1] (listed as ethylhydroxybenzoate) is 31.38 μmol/μmol AChE. In addition, in assay [2], the dissociation constant (Kd) is 48.7 µM and the “Ka × 10^3 (binding/association constant, ITC)” value is given as 20.53 × 10^3 L/mol. In addition, in assay [3], the “Ellman’s Assay (inhibitory activity as eserine equivalent)” value is 28.1 ± 0.1 nmol/L of Eserine.
As for `CCOC(=O)c1ccc(O)c(OC)c1` [ethyl vanillate], in assay [1], the “% Inhibition (inhibitory activity, ITC)” value is reported as 14.60 ± 2.33%; the “IC50 (ITC)” value was 34.19 μmol/μmol AChE and 34.19 ± 5.46 μmol/μmol AChE. For the same compound, in assay [2], the Kd is 25.8 µM and the “Ka × 10^3 (binding/association constant, ITC)” value is recorded as 38.76 × 10^3 L/mol. In addition, the “Ellman’s Assay (inhibitory activity as eserine equivalent)” value in [3] was 33.5 ± 2.5 nmol/L of Eserine.
Turning to `O=C(O)c1cc(O)c(O)c(O)c1` [gallic acid], in assay [1], the “% Inhibition (inhibitory activity, ITC)” value came to 53.70 ± 2.86%; the “IC50 (ITC)” value is 9.32 μmol/μmol AChE and 9.32 ± 0.50 μmol/μmol AChE. For the same compound, in assay [2], binding was characterised by a dissociation constant (Kd) of 19.4 µM and the “Ka × 10^3 (binding/association constant, ITC)” value was 51.55 × 10^3 L/mol. The “Ellman’s Assay (inhibitory activity as eserine equivalent)” value in assay [3] is given as 3.8 ± 0.1 nmol/L of Eserine. For the same compound, in assay [5], the IC50 was 5.89 µM.
In the case of `O=C(O)c1cc(O)ccc1O` [gentisic acid], in assay [1], the “% Inhibition (inhibitory activity, ITC)” value was determined as 62.38 ± 6.39%; the “IC50 (ITC)” value is 8.02 μmol/μmol AChE and 8.02 ± 0.82 μmol/μmol AChE. In [2], the Kd is 13 µM and the “Ka × 10^3 (binding/association constant, ITC)” value is listed as 76.92 × 10^3 L/mol. The “Ellman’s Assay (inhibitory activity as eserine equivalent)” value in [3] was 68.6 ± 0.7 nmol/L of Eserine.
In the case of `O=C(O)Cc1cc(O)ccc1O` [homogentisic acid], in [1], the “% Inhibition (inhibitory activity, ITC)” value is listed as 68.78 ± 0.88%; the “IC50 (ITC)” value is 7.16 μmol/μmol AChE and 7.16 ± 0.09 μmol/μmol AChE. Moreover, in [2], the affinity, expressed as Kd, was 8.55 µM and the “Ka × 10^3 (binding/association constant, ITC)” value is listed as 116.92 × 10^3 L/mol. Also, the “Ellman’s Assay (inhibitory activity as eserine equivalent)” value in assay [3] is listed as 9.6 ± 2.4 nmol/L of Eserine.
As for `COc1cc(CC(=O)O)ccc1O` [homovanillic acid], in [1], the “% Inhibition (inhibitory activity, ITC)” value came out at 77.50 ± 2.59%; the “IC50 (ITC)” value is 6.45 μmol/μmol AChE and 6.45 ± 0.22 μmol/μmol AChE. Also, in assay [2], binding was characterised by a dissociation constant (Kd) of 7.35 µM and the “Ka × 10^3 (binding/association constant, ITC)” value is on record as 136.05 × 10^3 L/mol. In addition, in [3], the “Ellman’s Assay (inhibitory activity as eserine equivalent)” value is 21.8 ± 0.4 nmol/L of Eserine.
Regarding `COC(=O)c1cc(OC)c(O)c(OC)c1` [methyl syringate], in [1], the “% Inhibition (inhibitory activity, ITC)” value is 90.93 ± 7.13%; the “IC50 (ITC)” value was 5.50 μmol/μmol AChE and 5.50 ± 0.43 μmol/μmol AChE. In assay [2], the affinity, expressed as Kd, was 6.48 µM; the “Ka × 10^3 (binding/association constant, ITC)” value was 154.32 × 10^3 L/mol; the “Ka (association constant, ITC)” value was found to be 154000 L/mol. In addition, the “Ellman’s Assay (inhibitory activity as eserine equivalent)” value in assay [3] is 9.1 ±1.6 nmol/L of Eserine.
Regarding `C[C@H](Cc1ccc(O)c(O)c1)[C@@H](C)Cc1ccc(O)c(O)c1` [nordihydroguaiaretic acid], in [1], the “% Inhibition (inhibitory activity, ITC)” value came to 77.20 ± 4.84%; the “IC50 (ITC)” value was 6.47 μmol/μmol AChE and 6.47 ± 0.41 μmol/μmol AChE. Moreover, in assay [2], binding was put at a Kd of 17.3 µM and the “Ka × 10^3 (binding/association constant, ITC)” value was 57.80 × 10^3 L/mol. The “Ellman’s Assay (inhibitory activity as eserine equivalent)” value in assay [3] is 37.3 ± 1.2 nmol/L of Eserine. Further, the half-inhibitory concentration (IC50) in assay [6] is 46.2 µM.
Take `O=C(O)c1ccc(O)c(O)c1` [protocatechuic acid]: in [1], the “% Inhibition (inhibitory activity, ITC)” value is 77.15 ± 5.16% and the “IC50 (ITC)” value is on record as 6.50 ± 0.43 μmol/μmol AChE. Also, the “IC50 (ITC)” value in assay [1] (listed as Protocatechic acid) is 6.50 μmol/μmol AChE. For the same compound, in assay [2], the dissociation constant Kd is 17.4 µM and the “Ka × 10^3 (binding/association constant, ITC)” value is reported as 57.63 × 10^3 L/mol.
In the case of `CCN(C)C(=O)Oc1cccc([C@H](C)N(C)C)c1` [rivastigmine], the IC50 in assay [4] was […].
On to `O=C(O)c1ccccc1O` [salicylic acid], for which, in [1], the “% Inhibition (inhibitory activity, ITC)” value came to 82.30 ± 4.77% and the “IC50 (ITC)” value came to 6.07 ± 0.35 μmol/μmol AChE. Also, in assay [1] (listed as Salicylic acid), the “IC50 (ITC)” value was 6.07 μmol/μmol AChE. For the same compound, in assay [2], the equilibrium dissociation constant (Kd) was 19.4 µM and the “Ka × 10^3 (binding/association constant, ITC)” value is 51.55 × 10^3 L/mol. In addition, the “Ellman’s Assay (inhibitory activity as eserine equivalent)” value in assay [3] was 11.8 ± 0.4 nmol/L of Eserine.
Turning to `COc1cc(C(=O)O)cc(OC)c1O` [syringic acid], in assay [1], the “% Inhibition (inhibitory activity, ITC)” value is recorded as 71.80 ± 3.12% and the “IC50 (ITC)” value was determined as 6.96 ± 0.30 μmol/μmol AChE. Further, in [1] (listed as Syringic acid), the “IC50 (ITC)” value worked out at 6.96 μmol/μmol AChE. In assay [2], the dissociation constant Kd was 5.46 µM; the “Ka × 10^3 (binding/association constant, ITC)” value is 183.15 × 10^3 L/mol; the “Ka (association constant, ITC)” value is 180000 L/mol. In assay [3], the “Ellman’s Assay (inhibitory activity as eserine equivalent)” value is 5.4 ± 0.1 nmol/L of Eserine. For the same compound, the 50% inhibitory concentration (IC50) in [7] is 18.73 µg/mL (≈ 94.5 µM).
As for `COc1cc(C(=O)O)ccc1O` [vanillic acid], in assay [1], the “% Inhibition (inhibitory activity, ITC)” value came to 73.70 ± 1.90%; the “IC50 (ITC)” value was 6.79 μmol/μmol AChE and 6.79 ± 0.18 μmol/μmol AChE. For the same compound, in assay [2], the equilibrium dissociation constant (Kd) is 19.1 µM and the “Ka × 10^3 (binding/association constant, ITC)” value is recorded as 52.36 × 10^3 L/mol. Further, the “Ellman’s Assay (inhibitory activity as eserine equivalent)” value in [3] was 3.2 ± 0.0 nmol/L of Eserine. Moreover, the “AChE activity in mice” value in assay [8] is on record as “reduced”.
With `COc1cc(C=O)ccc1O` [vanillin], the IC50 in assay [9] was 37 µM.

The values above are taken from PMC9227119, “Hydroxybenzoic Acids as Acetylcholinesterase Inhibitors: Calorimetric and Docking Simulation Studies” (Nutrients, 2022).
